The text below walks through data of patent publication US12240844B2 (Voronoi, Inc., priority 2019, dated 2025).

Each structure is given as a SMILES string. pIC50: −log10 of the molar value.

The target of test [1] is T1, LRRK2, LRRK2 (G2019S), DYRK1, CLK1 and TTK kinases (Homo sapiens, UniProt Q13627).
T1 construct: other: DYRK1; Kinase HotSpot service (Reaction Biology), ATP 10 uM
As to the kind of experiment: Enzyme IC50 by Kinase HotSpot service (Reaction Biology Corporation), values marked with *. Conditions: DYRK1, ATP 10 uM. It is filed as biochemical. In short, it runs like this: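 Radiometric-service kinase assays (Reaction Biology HotSpot protocol) run at 10 uM ATP under uniform conditions. Compounds tested as 3-fold dilution series from a top concentration of […] to give IC50.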

For test [2], the system named is SHP-77. As to the kind of experiment: SHP-77 cancer cell proliferation inhibition (Cell Titer-Glo). The class given is cell-based. To be noted: Homo sapiens, SHP77, SHP-77 small cell lung cancer cell line, 72 hours. A digest of the protocol:
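GI50 comes from CellTiter-Glo luminescence, read 10 min after reagent addition at RT, following 72 h compound treatment. Eleven concentrations were used (⅓ steps, highest 10 μM final) on 2000 cells/well. MDA-MB-231 and MDA-MB-468 were grown in DMEM, SHP-77 in RPMI.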

The target in test [3] is T2, DYRK1A (Homo sapiens, UniProt Q13627).
T2 construct: purchased DiscoverX
As to the kind of experiment: scanMAX Kinase panel (DiscoverX), % control. The class given is binding. Conditions: <35% = active. The protocol: (§1) Specifically, for Examples 162, 160, 105, 217, 205, 96, 207, 184, 206, 221, 238, and 237 selected among the example compounds of the present invention, it was decided to measure enzyme (kinase) selectivity by DiscoverX, and the experiment was conducted using a panel for scanMAX™ Kinase analysis. At this time, the concentration of the drug treated with the enzyme was 1 uM in DMSO, the control percentage (% control) was determined in the same way as in Equation 1 below, and the results were shown in Table 6 below. [formula] Here, the positive control refers to a compound showing a control percentage of 0%, and the negative control is DMSO, indicating a control percentage of 100%. Also, in the enzyme selectivity of the present invention, if the control percentage for each enzyme was <35% (i.e., less than 35%), it was determined to have activity against the relevant enzyme.

For test [4], the target named is LRRK2 (G2019S) (Homo sapiens, UniProt Q5S007, G2019S). As to the kind of experiment: scanMAX Kinase panel (DiscoverX), % control. It is filed as binding. Details: purchased DiscoverX. Conditions: <35% = active. The protocol:
as §1

For test [5], the target named is LRRK2 (Homo sapiens, UniProt Q5S007). As to the kind of experiment: scanMAX Kinase panel (DiscoverX), % control. The class given is binding. Also noted: purchased DiscoverX. Conditions: <35% = active. As to the method:
as §1

Test [6] has as its target T3, TTK (Homo sapiens, UniProt P33981).
T3 sequence (P33981 1-857): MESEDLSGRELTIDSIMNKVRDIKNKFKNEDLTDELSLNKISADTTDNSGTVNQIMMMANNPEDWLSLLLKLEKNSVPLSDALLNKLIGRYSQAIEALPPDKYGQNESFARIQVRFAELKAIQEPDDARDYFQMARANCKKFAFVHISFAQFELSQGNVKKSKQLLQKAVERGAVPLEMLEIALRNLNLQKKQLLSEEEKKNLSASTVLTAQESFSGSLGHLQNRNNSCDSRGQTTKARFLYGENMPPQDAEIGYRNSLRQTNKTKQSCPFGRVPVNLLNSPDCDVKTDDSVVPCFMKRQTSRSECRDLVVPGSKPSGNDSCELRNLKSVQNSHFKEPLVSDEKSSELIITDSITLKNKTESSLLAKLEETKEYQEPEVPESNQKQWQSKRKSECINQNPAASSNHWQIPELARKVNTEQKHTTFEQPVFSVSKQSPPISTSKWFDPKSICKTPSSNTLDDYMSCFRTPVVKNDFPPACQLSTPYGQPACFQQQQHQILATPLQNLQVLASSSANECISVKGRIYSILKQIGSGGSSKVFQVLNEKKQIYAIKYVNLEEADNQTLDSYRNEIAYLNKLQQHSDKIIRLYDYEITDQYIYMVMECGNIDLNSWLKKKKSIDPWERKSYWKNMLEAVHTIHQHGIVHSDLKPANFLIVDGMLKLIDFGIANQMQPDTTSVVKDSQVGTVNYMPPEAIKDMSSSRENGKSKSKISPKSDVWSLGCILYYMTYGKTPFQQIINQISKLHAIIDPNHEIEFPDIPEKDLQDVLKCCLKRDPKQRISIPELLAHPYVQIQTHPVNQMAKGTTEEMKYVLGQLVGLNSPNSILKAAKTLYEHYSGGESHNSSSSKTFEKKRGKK
As to the kind of experiment: scanMAX Kinase panel (DiscoverX), % control. The class given is binding. Details: purchased DiscoverX. To be noted: <35% = active. As to the method:
as §1

LRRK2, sequence (Q5S007 whole entry): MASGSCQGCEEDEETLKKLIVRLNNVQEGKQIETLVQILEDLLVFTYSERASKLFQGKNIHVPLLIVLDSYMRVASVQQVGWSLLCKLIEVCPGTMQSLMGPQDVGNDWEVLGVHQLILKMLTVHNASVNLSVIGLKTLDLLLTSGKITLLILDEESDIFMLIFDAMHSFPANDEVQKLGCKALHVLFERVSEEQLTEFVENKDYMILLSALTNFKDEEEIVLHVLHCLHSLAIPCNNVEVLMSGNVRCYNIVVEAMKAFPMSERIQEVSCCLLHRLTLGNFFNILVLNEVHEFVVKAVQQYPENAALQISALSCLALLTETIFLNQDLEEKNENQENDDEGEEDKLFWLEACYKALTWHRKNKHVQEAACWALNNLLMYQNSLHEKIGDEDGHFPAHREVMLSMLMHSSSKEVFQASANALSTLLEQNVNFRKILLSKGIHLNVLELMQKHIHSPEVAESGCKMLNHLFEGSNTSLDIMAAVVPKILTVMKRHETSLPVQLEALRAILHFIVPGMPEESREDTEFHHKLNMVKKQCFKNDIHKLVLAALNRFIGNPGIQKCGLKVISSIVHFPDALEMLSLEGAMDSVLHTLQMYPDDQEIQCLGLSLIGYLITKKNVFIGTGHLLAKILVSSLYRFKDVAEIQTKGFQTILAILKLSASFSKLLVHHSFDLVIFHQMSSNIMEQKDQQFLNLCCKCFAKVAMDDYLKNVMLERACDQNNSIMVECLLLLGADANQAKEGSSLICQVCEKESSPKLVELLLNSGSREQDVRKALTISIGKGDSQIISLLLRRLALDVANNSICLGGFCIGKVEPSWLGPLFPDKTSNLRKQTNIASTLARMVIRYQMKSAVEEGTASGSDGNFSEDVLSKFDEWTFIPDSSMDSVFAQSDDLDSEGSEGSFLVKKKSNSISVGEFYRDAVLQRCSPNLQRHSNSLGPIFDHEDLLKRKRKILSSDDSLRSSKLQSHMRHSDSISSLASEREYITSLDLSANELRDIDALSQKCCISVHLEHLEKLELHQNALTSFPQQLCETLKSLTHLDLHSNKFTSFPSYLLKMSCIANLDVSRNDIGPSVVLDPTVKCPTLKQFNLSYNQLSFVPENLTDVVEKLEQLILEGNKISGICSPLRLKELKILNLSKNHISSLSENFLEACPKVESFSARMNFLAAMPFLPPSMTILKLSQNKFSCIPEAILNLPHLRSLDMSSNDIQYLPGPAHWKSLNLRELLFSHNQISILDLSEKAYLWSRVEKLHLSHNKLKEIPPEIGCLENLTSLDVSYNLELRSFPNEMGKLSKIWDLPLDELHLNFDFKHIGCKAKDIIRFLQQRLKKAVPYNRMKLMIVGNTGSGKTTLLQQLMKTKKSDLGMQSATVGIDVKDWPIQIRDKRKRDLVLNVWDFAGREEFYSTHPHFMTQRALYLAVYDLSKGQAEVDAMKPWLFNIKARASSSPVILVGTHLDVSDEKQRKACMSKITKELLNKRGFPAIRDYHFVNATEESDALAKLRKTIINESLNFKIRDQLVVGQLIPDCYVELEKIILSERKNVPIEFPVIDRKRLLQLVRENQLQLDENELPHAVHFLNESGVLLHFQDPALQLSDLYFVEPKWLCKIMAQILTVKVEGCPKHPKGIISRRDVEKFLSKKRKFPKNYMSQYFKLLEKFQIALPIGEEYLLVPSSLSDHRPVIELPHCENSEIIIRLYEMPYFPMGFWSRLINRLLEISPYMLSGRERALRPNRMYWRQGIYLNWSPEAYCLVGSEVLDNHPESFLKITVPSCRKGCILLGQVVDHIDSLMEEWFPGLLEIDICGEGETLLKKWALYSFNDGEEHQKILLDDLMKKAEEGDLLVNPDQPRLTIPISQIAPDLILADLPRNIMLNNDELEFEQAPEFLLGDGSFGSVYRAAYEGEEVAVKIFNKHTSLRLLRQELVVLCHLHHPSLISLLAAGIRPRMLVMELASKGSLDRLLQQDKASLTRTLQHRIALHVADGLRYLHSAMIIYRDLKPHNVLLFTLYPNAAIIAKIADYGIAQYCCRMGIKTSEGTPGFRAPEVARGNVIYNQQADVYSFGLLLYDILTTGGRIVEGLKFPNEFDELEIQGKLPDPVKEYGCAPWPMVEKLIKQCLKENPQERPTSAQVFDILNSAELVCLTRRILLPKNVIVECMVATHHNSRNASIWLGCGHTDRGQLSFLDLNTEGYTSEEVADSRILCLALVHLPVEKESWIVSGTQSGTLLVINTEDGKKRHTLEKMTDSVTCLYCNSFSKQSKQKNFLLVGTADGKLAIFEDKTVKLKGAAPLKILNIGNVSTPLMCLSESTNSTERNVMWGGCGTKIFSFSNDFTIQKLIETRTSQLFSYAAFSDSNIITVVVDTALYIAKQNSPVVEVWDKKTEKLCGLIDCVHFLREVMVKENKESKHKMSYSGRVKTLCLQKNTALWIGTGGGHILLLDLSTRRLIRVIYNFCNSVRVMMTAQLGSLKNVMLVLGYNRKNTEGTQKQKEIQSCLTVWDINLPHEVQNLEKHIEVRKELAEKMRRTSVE
LRRK2 (G2019S), sequence (Q5S007 whole entry G2019S): as the sequence (Q5S007 whole entry) above, with G2019S counted along it

For `O=C(c1ccc(Nc2cc(C3CC3)c3c(C(F)(F)F)c[nH]c3n2)c2c1CCO2)N1CCOCC1` [Example 91, (7-((4-cyclopropyl-3-(trifluoromethyl)-1H-pyrrolo[2,3-b]pyridin-6-yl)amino)-2,3-dihydrobenzofuran-4-yl)(morpholino) methanone], in test [1], the negative logarithm of the IC50 (pIC50) was > 7.00.
In the case of `O=C(c1ccc(Nc2cc(C3CC3)c3c(C(F)(F)F)c[nH]c3n2)c2c1CCO2)N1CCC(N2CCOCC2)CC1` [Example 93, (7-((4-cyclopropyl-3-(trifluoromethyl)-1H-pyrrolo[2,3-b]pyridin-6-yl)amino)-2,3-dihydrobenzofuran-4-yl)(4-morpholinopiperidin-1-yl)mthanone], the negative logarithm of the IC50 (pIC50) in test [1] is > 7.00.
With `CCNc1cc(Nc2ccc(S(=O)(=O)N3CCC(N4CCOCC4)CC3)c3c2OCCO3)nc2[nH]cc(C(F)(F)F)c12` [Example 96, N^4-ethyl-N^6-(8-((4-morpholonopiperidin-1-yl)sulfonyl)-2,3-dihydrobenzo [b] [1,4]dioxin-5-yl)-3-(trifluoromethyl)-1H-pyrrolo[2,3-b]pyridine-4,6-diamine], the GI50 in test [2] is 301 to 1000 nM. In addition, the remaining binding at 1 µM turned out to be 1.3% in test [3], 1.9% in test [4], 4.5% in test [5] and 2.7% in test [6].
Consider `CCNc1cc(Nc2ccc(C(=O)N3CCC(N4C[C@@H]5C[C@H]4CO5)CC3)c3c2OCC3)nc2[nH]cc(C(F)(F)F)c12` [Example 105, (4-((1S,4S)-2-oxa-5-azabicyclo[2.2.1]heptan-5-yl)piperidin-1-yl)(7-((4-(ethylamino)-3-(trifluoromethyl)-1H-pyrrolo[2,3-b]pyridin-6-yl)amino)-2,3-dihydrobenzofuran-4-yl)methanone], for which the remaining binding at 1 µM is 0% in test [3], 0% in test [4], 0% in test [5] and 2.6% in test [6].
As for `CNc1cc(Nc2ccc(C(=O)N3CCC(N4CCOCC4)CC3)c3c2OCCO3)nc2[nH]cc(C(F)(F)F)c12` [Example 160, (8-((4-(methylamino)-3-(trifluoromethyl)-1H-pyrrolo[2,3-b]pyridin-6-yl)amino)-2,3-dihydrobenzo [b] [1,4]dioxin-5-yl)(4-morpholinopiperidin-1-yl)methanone], the remaining binding at 1 µM in test [3] came to 0.35%; in test [4] it was 0.35%; in test [5], 2.8%; in test [6], 3.4%.
On to `CCCNc1cc(Nc2ccc(C(=O)N3CCC(N4CCOCC4)CC3)c3c2OCCO3)nc2[nH]cc(C(F)(F)F)c12` [Example 162, (4-morpholinopiperidin-1-yl)(8-((4-(propylamino)-3-(trifluoromethyl)-1H-pyrrolo[2,3-b]pyridin-6-yl)amino)-2,3-dihydrobenzo[b] [1,4]dioxin-5-yl)methanone], for which the remaining binding at 1 µM amounted to 0.35% in test [3], 0.35% in test [4], 2.8% in test [5] and 3.4% in test [6].
In the case of `CNc1cc(Nc2ccc(P3(=O)CCN(C4CC4)CC3)cc2OC)nc2[nH]cc(C(F)(F)F)c12` [Example 205, 1-cyclopropyl-4-(3-methoxy-4-((4-(methylamino)-3-(trifluoromethyl)-1H-pyrrolo[2,3-b]pyridin-6-yl)amino)phenyl)-1,4-azaphosphinane 4-oxide], the remaining binding at 1 µM in test [3] worked out at 0.25%; in test [4] it was 17%; in test [5], 18%; in test [6], 5.5%.
For `CCNc1cc(Nc2ccc(P3(=O)CCN(C4CC4)CC3)cc2OC)nc2[nH]cc(C(F)(F)F)c12` [Example 206, 1-cyclopropyl-4-(4-((4-(ethylamino)-3-(trifluoromethyl)-1H-pyrrolo[2,3-b]pyridin-6-yl)amino)-3-methoxyphenyl)-1,4-azaphosphinane 4-oxide], in that order: 2%, 28%, 23% and 0.65%.
Regarding `COCCNc1cc(Nc2ccc(P3(=O)CCN(C4CC4)CC3)cc2OC)nc2[nH]cc(C(F)(F)F)c12` [Example 207, 1-cyclopropyl-4-(3-methoxy-4-((4-((2-methoxyethyl)amino)-3-(trifluoromethyl)-1H-pyrrolo[2,3-b]pyridin-6-yl)amino)phenyl)-1,4-azaphosphinane 4-oxide], in test [2], the concentration for 50% growth inhibition (GI50) fell in the range of 301 to 1000 nM. Besides, the remaining binding at 1 µM was determined as 0.4% in test [3], 16% in test [4], 20% in test [5] and 4.8% in test [6].
With `CNc1cc(Nc2ccc(C(=O)N3CC[C@H](N4CCOCC4)C3)c3c2OCC3)nc2[nH]cc(C(F)(F)F)c12` [Example 217, (S)-(7-((4-(methylamino)-3-(trifluoromethyl)-1H-pyrrolo[2,3-b]pyridin-6-yl)amino)-2,3-dihydrobenzofuran-4-yl)(3-morpholinopyrrolidin-1-yl)methanone], the remaining binding at 1 µM worked out at 0% in test [3], 1% in test [4], 1% in test [5] and 3% in test [6].
Consider `O=C(c1ccc(Nc2cc(C3CC3)c3c(C(F)(F)F)c[nH]c3n2)c2c1OCCO2)N1CCC(N2CCOCC2)CC1` [Example 221, (8-((4-cyclopropyl-3-(trifluoromethyl)-1H-pyrrolo[2,3-b]pyridin-6-yl)amino)-2,3-dihydrobenzo [b] [1,4]dioxin-5-yl)(4-morpholinopiperidin-1-yl)methanone], for which the pIC50 in test [1] is > 7.00. The remaining binding at 1 µM was 5.1% in test [3], 5.5% in test [4], 14% in test [5] and 4.5% in test [6].
With `COc1cc(S(=O)(=O)N2CCOCC2)ccc1Nc1cc(C2CC2)c2c(C(F)(F)F)c[nH]c2n1` [Example 222, 4-cyclopropyl-N-(2-methoxy-4-(morpholinosulfonyl)phenyl)-3-(trifluoromethyl)-1H-pyrrolo[2,3-b]pyridin-6-amine], the pIC50 in test [1] is 6.52 to 7.00. Further, the GI50 in test [2] was 301 to 1000 nM.
`N#Cc1c[nH]c2nc(Nc3ccc(C(=O)N4CCOCC4)c4c3OCCO4)cc(C3CC3)c12` [Example 225, 4-cyclopropyl-6-((8-(morpholine-4-carbonyl)-2,3-dihydrobenzo[b] [1,4]dioxin-5-yl)amino)-1H-pyrrolo[2,3-b]pyridine-3-carbonitrile] gave a pIC50 in test [1] of 6.52 to 7.00.
Same read-out and setting: to `N#Cc1c[nH]c2nc(Nc3ccc(C(=O)N4CCC(N5CCOCC5)CC4)c4c3OCCO4)cc(C3CC3)c12` [Example 226, 4-cyclopropyl-6-((8-(4-morpholinopiperidine-1-carbonyl)-2,3-dihydrobenzo[b] [1,4]dioxin-5-yl)amino)-1H-pyrrolo[2,3-b]pyridine-3-carbonitrile] belongs > 7.00.
Take `COc1cc(S(=O)(=O)N2CCC(N3CCOCC3)CC2)ccc1Nc1cc(C2CC2)c2c(C#N)c[nH]c2n1` [Example 228, 4-cyclopropyl-6-((2-methoxy-4-((4-morpholinopiperidin-1-yl)sulfonyl)phenyl)amino)-1H-pyrrolo[2,3-b]pyridine-3-carbonitrile]: the pIC50 in test [1] is > 7.00. In test [2], this molecule gave a GI50 of 51 to 100 nM.
